Source: patent US8993616B2, “(aza)indole derivative and use thereof for medical purposes” (Kissei Pharmaceutical Co., Ltd., priority 2007, dated 2015)

Experiments:
[1] = test system: BBMV from human kidney cortex (uric acid uptake); test: Inhibitory activity of uric acid transport with brush-border membrane vesicles (BBMV); type: biochemical; conditions: 10 μM test compound; uptake of 14C-labeled uric acid into human kidney cortex BBMV, 20 seconds
Protocol: Inhibitory activity of uric acid transport of test compounds was performed on the basis of methods described in a reference (Am. J. Physiol. 266 (Renal Fluid Electrolyte Physiol. 35): F797-F805, 1994) with a partial modification.
(1) Preparation of BBMV from Human Kidney Cortex
BBMV from human kidney cortex were purchased from KAC. Renal cortex was dissected from human kidney and cut into small pieces. Then, the cortex was homogenized in 5 volumes of ice-cold isotonic buffer (300 mM mannitol, 5 mM ethylene glycol-bis-(β-aminoethylether)-N,N,N′,N′-tetraacetic acid (EGTA), 12 mM tris(hydroxymethyl)aminomethane (Tris).HCl, pH 7.4). After adding 1 M magnesium chloride to a final concentration of 12 mM, and then the suspension was mixed and allowed to stand on ice for 15 minutes. […] After centrifugation at 30,000×g for 30 minutes at 4° C., the pellet was resuspended in buffer 2, and then the protein concentration was determined. […]
BBMV were thawed on ice. […] The uptake of uric acid into BBMV was measured by the rapid-filtration technique. […] Furthermore, filters were washed twice with 3 mL of stop solution and dissolved in 10 mL of Filter-Count (PerkinElmer), and the radioactivity was counted in a liquid scintillation counter (PerkinElmer). The radioactivity associated with the filters in the absence of BBMV was used as corrections. […]

[2] = biological target: Xanthine oxidase (from bovine milk, Sigma) (Bos taurus (Bovine), UniProt P80457); test: Xanthine oxidase inhibitory activity; type: biochemical; conditions: xanthine substrate, 10 minutes at room temperature, absorbance at 290 nm
Protocol: (1) Preparation of Test Compounds
Test compounds were dissolved in DMSO (Wako) at 40 mM concentration and then diluted to intended concentrations with phosphate-buffered saline (PBS).
(2) Method for Measurement
Xanthine oxidase (from bovine milk, Sigma) was prepared with phosphate-buffered saline (PBS) at 0.02 units/mL, and then the solution was added to 96 well plates at 50 μL/well. In addition, test compounds diluted with PBS were added at 50 μL/well. Xanthine (Wako) at 200 μM prepared with PBS was added at 100 μL/well, and the reaction was conducted for 10 minutes at room temperature. Absorbance at 290 nm was measured using a microplate reader SpectraMax Plus 384 (Molecular device). The absorbance under a condition without xanthine is 0%, and control without test compounds is 100%. Fifty % inhibitory concentration of a test compound (IC50) was calculated (Table 60). Ex. No in the table indicates Example number.

Sequence of Xanthine oxidase (from bovine milk, Sigma) (P80457 whole entry): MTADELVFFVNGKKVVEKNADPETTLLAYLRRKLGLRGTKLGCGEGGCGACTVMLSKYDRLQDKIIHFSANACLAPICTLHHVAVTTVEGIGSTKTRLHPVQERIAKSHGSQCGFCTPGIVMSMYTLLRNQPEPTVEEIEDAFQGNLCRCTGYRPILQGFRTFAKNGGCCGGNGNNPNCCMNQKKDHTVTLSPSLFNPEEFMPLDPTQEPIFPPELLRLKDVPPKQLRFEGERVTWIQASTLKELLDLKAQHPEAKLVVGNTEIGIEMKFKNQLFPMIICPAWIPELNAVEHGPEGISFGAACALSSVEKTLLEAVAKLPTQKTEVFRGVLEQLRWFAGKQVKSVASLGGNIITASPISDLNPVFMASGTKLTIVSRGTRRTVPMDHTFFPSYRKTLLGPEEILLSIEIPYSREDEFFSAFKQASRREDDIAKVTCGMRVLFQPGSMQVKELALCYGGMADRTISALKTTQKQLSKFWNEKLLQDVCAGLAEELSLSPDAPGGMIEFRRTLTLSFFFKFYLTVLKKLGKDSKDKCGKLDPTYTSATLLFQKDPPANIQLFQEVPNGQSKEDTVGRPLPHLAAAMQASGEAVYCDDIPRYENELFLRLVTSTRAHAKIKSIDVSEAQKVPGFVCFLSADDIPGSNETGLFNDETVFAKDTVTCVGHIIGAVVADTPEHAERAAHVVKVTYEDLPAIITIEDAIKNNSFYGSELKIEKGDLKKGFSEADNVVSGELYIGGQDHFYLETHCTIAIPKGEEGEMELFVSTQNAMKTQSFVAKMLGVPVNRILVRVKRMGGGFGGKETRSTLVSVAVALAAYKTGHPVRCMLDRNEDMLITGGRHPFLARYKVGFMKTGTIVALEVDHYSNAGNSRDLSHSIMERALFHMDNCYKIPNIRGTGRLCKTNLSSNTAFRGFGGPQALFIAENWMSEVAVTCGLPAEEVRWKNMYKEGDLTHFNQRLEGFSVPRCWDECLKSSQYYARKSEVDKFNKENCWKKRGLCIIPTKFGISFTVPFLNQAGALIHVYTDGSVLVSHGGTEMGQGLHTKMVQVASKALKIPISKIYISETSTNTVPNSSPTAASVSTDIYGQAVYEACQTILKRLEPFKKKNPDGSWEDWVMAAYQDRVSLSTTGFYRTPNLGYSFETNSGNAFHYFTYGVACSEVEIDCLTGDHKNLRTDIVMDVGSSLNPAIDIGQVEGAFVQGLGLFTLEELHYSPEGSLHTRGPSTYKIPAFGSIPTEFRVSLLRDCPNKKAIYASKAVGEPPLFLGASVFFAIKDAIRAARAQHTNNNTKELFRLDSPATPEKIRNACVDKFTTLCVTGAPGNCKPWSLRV

IC50 [2]: 12.6 nM
Compound: CC(C)c1ccc2c(C#N)cn(-c3ccc(C(=O)O)c(O)c3)c2c1 [Example 237]
inhibition % [1]: 64%
